IC50 data for 13 molecules are collected here from patent US8993619B2, “Cyclic bridgehead ether DGAT1 inhibitors” (Novartis AG, priority 2012, dated 2015).

The target of one experiment is T1, human (His)6DGAT1 (Homo sapiens, UniProt O75907).
T1 construct: made in house; host or cells: Sf9 insect cells (membrane preparation)
T1 sequence (O75907 1-488): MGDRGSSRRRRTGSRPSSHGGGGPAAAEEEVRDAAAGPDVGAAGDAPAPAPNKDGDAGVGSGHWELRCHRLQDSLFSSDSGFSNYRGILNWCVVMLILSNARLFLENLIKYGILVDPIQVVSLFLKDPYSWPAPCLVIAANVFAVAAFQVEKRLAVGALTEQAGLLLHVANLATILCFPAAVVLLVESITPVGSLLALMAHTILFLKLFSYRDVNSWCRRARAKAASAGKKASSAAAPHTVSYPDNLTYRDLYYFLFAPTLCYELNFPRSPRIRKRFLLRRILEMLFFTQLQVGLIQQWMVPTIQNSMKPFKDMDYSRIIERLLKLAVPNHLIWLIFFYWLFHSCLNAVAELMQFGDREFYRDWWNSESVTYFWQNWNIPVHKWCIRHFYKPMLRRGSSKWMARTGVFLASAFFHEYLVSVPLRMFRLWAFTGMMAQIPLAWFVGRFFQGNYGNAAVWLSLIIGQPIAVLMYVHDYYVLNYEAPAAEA
The experiment in a line: DGAT1 Inhibition Assay. The class given is biochemical. Particulars: membrane preparation from Sf9 cells overexpressing human (His)6DGAT1; LC/MS/MS readout. As for the experimental part:
The enzyme preparation used in this assay is a membrane preparation from Sf9 cells overexpressing human (His)6DGAT1. During all steps samples were chilled to 4° C. Sf9 cells expressing human (His)6DGAT1 were thawed at room temperature and re-suspended at a 10:1 ratio (mL buffer/g of cells) in 50 mM HEPES, 1× Complete Protease Inhibitor, pH 7.5. The re-suspended pellet was homogenized for 1 min using a Brinkman PT 10/35 homogenizer with a 20 mm generator. Cells were lysed using Avestin Emulsiflex (chilled to 4° C.) at 10000-15000 psi. Lysate was centrifuged at 100,000×g for 1 h at 4° C. Supernatant was removed and pellets were re-suspended in 50 mM HEPES, 1× Complete Protease Inhibitor, pH 7.5 at ⅙ the volume of supernatant. Re-suspended pellets were pooled and homogenized with 10 strokes of a Glas-Col motor driven teflon pestle on setting 70. The protein concentration of the membrane preparation was quantified using BCA protein assay with 1% SDS. The membrane preparation was aliquoted, frozen on dry ice, and stored at −80° C.
For 50 mL, 25 mL of 0.2 M HEPES stock buffer, 0.5 mL of 1 M MgCl2 ([…]), and 24.5 mL of milli-Q H2O are added to the 55 mL Wheaton Potter-Elvehjem homogenizer. Enzyme preparation (0.1 mL) is added to buffer and the mixture is homogenized with 5 strokes on ice using the Glas-Col variable speed homogenizer system on setting 70.
For 50 mL, 0.5 mL 10 mM diolein is added to 9.5 mL of EtOH in a 50 mL Falcon screw cap conical centrifuge tube. Five mL of 10 mM sodium acetate pH 4.5 is added followed by 0.5 mL of 10 mM oleoyl-CoA. Finally, the remaining 4.5 mL of 10 mM sodium acetate pH 4.5 is added followed by 30 mL of milli-Q H20. The solution should be gently agitated by hand to induce mixing. The final concentrations of EtOH and sodium acetate are 20% and 2 mM, respectively.
Dry compounds are dissolved in the appropriate volume of DMSO to a final concentration of 10 mM. […] All dilutions are performed in DMSO in a Greiner 384-well microplate. • 1. 2 μL of compound in DMSO is added to the appropriate wells. […] 25 μL of enzyme mix is added to all wells and plate(s) are incubated for 10 min at RT. • 3. […] Plate(s) are vortexed using Troemner multi-tube vortexer (setting 7 for 10 sec). • 4. 25 μL of substrate mix is added to all wells. Plate(s) are vortexed using Troemner multi-tube vortexer (setting 7 for 10 sec). Plate(s) are incubated for 30 min at RT. • 5. 10 μL of 20% acetic acid quench is added to all wells. Plate(s) are vortexed using Troemner multi-tube vortexer (setting 7 for 10 sec). • 6. 50 μL of 1-butanol w/ glyceryl tripalmitoleate internal standard is added to all wells. • 7. Plate(s) are sealed with super pierce strong plate sealer using the thermo-sealer. • 8. Plate(s) are vortexed using Troemner multi-tube vortexer (setting 10 for 5 min). • 9. Plate(s) are centrifuged at 162×g (1000 rpm for GH-3.8 rotor) for 5 min using Beckman GS-6R tabletop centrifuge.
Where indicated, tripalmitolein was used as an internal standard to control for instrument variation.
Column: Thermo Betabasic 4, 2.1×20 mm
Solvent: 10 mM Ammonium Formate, 0.1% Formic Acid, 2% water, 98% Methanol
Isocratic run 0.5 ml per minute
Data is converted to % inhibition prior to curve fitting using the following equation: […]

For another experiment, the target named is T2, DGAT1 in C2C12 cells (Mus musculus, UniProt Q9Z2A7).
T2 construct: endogenous in cells; host or cells: C2C12 mouse skeletal muscle cells
T2 sequence (Q9Z2A7 1-498): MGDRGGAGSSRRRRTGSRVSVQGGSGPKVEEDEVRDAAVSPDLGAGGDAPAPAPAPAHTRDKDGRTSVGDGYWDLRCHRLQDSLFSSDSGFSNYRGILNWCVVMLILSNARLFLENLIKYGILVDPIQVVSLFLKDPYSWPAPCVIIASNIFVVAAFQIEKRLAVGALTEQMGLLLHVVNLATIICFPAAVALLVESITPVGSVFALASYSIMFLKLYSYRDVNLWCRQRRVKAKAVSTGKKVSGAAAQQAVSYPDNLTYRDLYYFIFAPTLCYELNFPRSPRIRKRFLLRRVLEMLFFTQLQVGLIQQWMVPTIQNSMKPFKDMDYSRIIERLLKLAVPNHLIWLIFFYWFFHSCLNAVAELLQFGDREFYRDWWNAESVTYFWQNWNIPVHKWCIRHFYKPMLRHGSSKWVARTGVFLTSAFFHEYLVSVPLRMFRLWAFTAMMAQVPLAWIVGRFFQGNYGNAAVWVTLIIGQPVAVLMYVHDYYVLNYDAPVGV
The experiment in a line: Cellular assay to measure activity of DGAT1 inhibitors in mammalian cells (C2C12). The class given is cell-based. The settings on record: C2C12 mouse skeletal muscle cells, 250 μM oleate, 2 h, LC/MS readout. As for the experimental part: C2C12 cells are an immortal mouse skeletal muscle cell line showing an 8-fold enrichment form DGAT1 versus DGAT2. C2C12 cells were routinely cultured in 150 cm2 flasks with DMEM (25 mM glucose) containing 10% FBS, 4 m M L-glutamine, 100 U/ml penicillin and 100 μg/ml streptomycin (30 ml per flask), at 37° C., 5% CO2 and 95% humidity. All studies were performed on cells at passage 10 or less.
C2C12 cells were seeded in 96-well plates in DMEM containing […] glucose and 10% FBS, 18 h (at 37° C.) prior to assay (all wells of the plate are used). […] Compounds were added at 1:3 dilution, 11 points and DMSO control, the starting concentration was usually 40 μM. Each point was dosed in quadruplicate allowing 2 compounds to be dosed per plate. The medium was removed at the end of the incubation and 200 μl/well of 1-butanol added. The 1-butanol contained an internal standard, tripalmitolein (2 μM). The plates were sealed with an adhesive plate sealer and left at room temperature for at least 30 min, then spun down at 209×g for 5 min.
Butanolic extracts were transferred to 384-well LC-MS plates (80 μl/well) and the plate heatsealed with a foil plate sealer. The 384-well plates containing sample were spun down at 209×g for 5 min prior to loading on the LC-MS.
Where indicated, tripalmitolein was used as an internal standard to control for instrument variation. HPLC conditions as above.

The term IC50 denotes the concentration at which inhibition is half-maximal. High values mean a need for much substance, low ones inhibition by little substance.

In the case of `O=C(O)CC12CCC(c3ccc(-c4ccc(Nc5nnc(C6CCC6)s5)cn4)cc3)(CC1)CO2` [Example 3, 2-(4-(4-(5-((5-cyclobutyl-1,3,4-thiadiazol-2-yl)amino)pyridin-2-yl)phenyl)-2-oxabicyclo[2.2.2]octan-1-yl)acetic acid], the IC50 at human (His)6DGAT1 is 53.5 nM; against DGAT1 in C2C12 cells, 15 nM. Turning to `O=C(O)CC12CCC(c3ccc(-c4ccc(Nc5nnc(C6CC6)o5)cc4)cc3)(CC1)CO2` [Example 9, 2-(4-(4′-((5-cyclopropyl-1,3,4-oxadiazol-2-yl)amino)-[1,1′-biphenyl]-4-yl)-2-oxabicyclo[2.2.2]octan-1-yl)acetic acid], the IC50 is 230000 nM against human (His)6DGAT1 and 528 nM at DGAT1 in C2C12 cells (heading: DGAT1-C2C12 IC50). For the molecule `Cc1nc(C(=O)Nc2ccc(-c3ccc(C45CCC(CC(=O)O)(CC4)OC5)cc3)cc2)c(C(F)(F)F)o1` [Example 10, 2-(4-(4′-(2-methyl-5-(trifluoromethyl)oxazole-4-carboxamido)-[1,1′-biphenyl]-4-yl)-2-oxabicyclo[2.2.2]octan-1-yl)acetic acid], the IC50 at human (His)6DGAT1 was 360 nM; against DGAT1 in C2C12 cells, 56 nM.

As for `CC(C)(C)c1nnc(Nc2ccc(-c3ccc(C45CCC(CC(=O)O)(CC4)CO5)cc3)cc2)o1` [Example 20, 2-(1-(4′-((5-(tert-butyl)-1,3,4-oxadiazol-2-yl)amino)-[1,1′-biphenyl]-4-yl)-2-oxabicyclo[2.2.2]octan-4-yl)acetic acid], the IC50 came to 120 nM on human (His)6DGAT1 and 16 nM at DGAT1 in C2C12 cells. The matching figures for `O=C(O)CC12CCC(c3ccc(-c4ccc(Nc5nnc(C6CCC6)o5)cn4)cc3)(CC1)OC2` [Example 21, (1-{4-[5-(5-cyclobutyl-[1,3,4]oxadiazol-2-ylamino)-pyridin-2-yl]-phenyl}-2-oxa-bicyclo[2.2.2]oct-4-yl)-acetic acid]: 360 nM and 944 nM.

Consider `CC(C)(C)c1nnc(Nc2ccc(-c3ccc(C45CCC(CCC(=O)O)(CC4)O5)cc3)cc2)o1` [Example 23, 3-(4-(4′-((5-(tert-butyl)-1,3,4-oxadiazol-2-yl)amino)-[1,1′-biphenyl]-4-yl)-7-oxabicyclo[2.2.1]heptan-1-yl)propanoic acid], for which the IC50 on human (His)6DGAT1 was 84 nM; against DGAT1 in C2C12 cells, 267 nM.

Take `O=C(O)CC12CCC(c3ccc(-c4cnc(Nc5nnc(C6CCC6)s5)nc4)cc3)(CC1)CO2` [Example 4, 2-(4-(4-(2-(5-cyclobutyl-1,3,4-thiadiazol-2-ylamino)pyrimidin-5-yl)phenyl)-2-oxabicyclo[2.2.2]octan-1-yl)acetic acid]: the IC50 against human (His)6DGAT1 worked out at 14000 nM; against DGAT1 in C2C12 cells, 2500 nM. The matching figures for `O=C(O)CC12CCC(c3ccc(-c4ccc(Nc5nnc(C6CCC6)s5)cc4)cc3)(CC1)CO2` [Example 6, 2-(4-(4′-(5-cyclobutyl-1,3,4-thiadiazol-2-ylamino)biphenyl-4-yl)-2-oxabicyclo[2.2.2]octan-1-yl)acetic acid]: 12.5 nM and 2 nM. Turning to `CC(C)Cc1nnc(Nc2ccc(-c3ccc(C45CCC(CC(=O)O)(CC4)OC5)cc3)cc2)o1` [Example 16, 2-(4-(4′-((5-isobutyl-1,3,4-oxadiazol-2-yl)amino)-[1,1′-biphenyl]-4-yl)-2-oxabicyclo[2.2.2]octan-1-yl)acetic acid], the IC50 against human (His)6DGAT1 was 60 nM; against DGAT1 in C2C12 cells it was 38 nM. The matching figures for `CC(C)(C)Cc1nnc(Nc2ccc(-c3ccc(C45CCC(CC(=O)O)(CC4)OC5)cc3)cc2)o1` [Example 17, 2-(4-(4′-((5-neopentyl-1,3,4-oxadiazol-2-yl)amino)-[1,1′-biphenyl]-4-yl)-2-oxabicyclo[2.2.2]octan-1-yl)acetic acid]: 53 nM and 31 nM. For `Cc1nc(C(=O)Nc2ccc(-c3ccc(C45CCC(CC(=O)O)(CC4)OC5)cc3)nc2)c(C(F)(F)F)o1` [Example 12, 2-(4-(4-(5-(2-methyl-5-(trifluoromethyl)oxazole-4-carboxamido)pyridin-2-yl)phenyl)-2-oxabicyclo[2.2.2]octan-1-yl)acetic acid], the IC50 at human (His)6DGAT1 worked out at 878 nM. For the molecule `CC(C)(C)c1nnc(Nc2ccc(-c3ccc(C45CCC(CC(=O)O)(CC4)OC5)cc3)nc2)o1` [Example 1, 2-(4-(4-(5-(5-tert-butyl-1,3,4-oxadiazol-2-ylamino)pyridin-2-yl)phenyl)-2-oxabicyclo[2.2.2]octan-1-yl)acetic acid], the half-maximal inhibitory concentration (IC50) came to 345 nM on human (His)6DGAT1 and 288 nM against DGAT1 in C2C12 cells. The matching figures for `CCc1nc(C)c(C(=O)Nc2ccc(-c3ccc(C45CCC(CC(=O)O)(CC4)CO5)cc3)cc2)o1` [Example 18, 2-(1-(4′-(2-ethyl-4-methyloxazole-5-carboxamido)-[1,1′-biphenyl]-4-yl)-2-oxabicyclo[2.2.2]octan-4-yl)acetic acid]: 2900 nM and 160 nM.
